{
  "source": "patent US8663915B2",
  "about": "“Methods of controlling tumorigenesis and diagnosing the risk thereof” (Agency for Science, Technology and Research, priority 2007, dated 2014)",
  "key": {"[1]": {"test_system": "ERK phosphorylation in MCF10A-RCP cells", "description": "Western blot analysis. Whole cell lysates were prepared using RIPA buffer. The proteins were separated by SDS-PAGE and transferred to Hybond-P PVDF membrane (GE Healthcare). Antibodies to RCP (Genway, Catalog Number (CN): 15-288-21574A), β-actin (Sigma, CN: A5441), phospho-Akt (Cell Signaling Technology, CN: 9271), Akt (Cell Signaling Technology, CN: 9272), phospho-Erk (Cell Signaling Technology, CN: 9101), and Erk (Cell Signalling, CN: 9102) were used to probe the membrane, and antibody-protein complex was detected by HRP-conjugated antibodies and ECL (Amersham Biosciences).\nFor the MAPK inhibition assays, cells were treated with MEK inhibitor U0126 (Promega) overnight in medium with 0.5% serum before being re-plated into 96-well plates."}, "MCF10A-RCP cells": {"test_system": "MCF10A-RCP cells", "details": "30 uM U0126", "description": "Cell proliferation and colony formation. Cells were plated at a density of 5000 cells/well in 96-well plates, and cell proliferation was measured in quadruplicate (ie, 4 wells per condition) using WST-1 (Roche) according to the manufacturer's protocol. For the MAPK inhibition assays, cells were treated with MEK inhibitor U0126 (Promega) overnight in medium with 0.5% serum before being re-plated into 96-well plates."}},
  "data": [
    {"smiles": "N#CC(=C(/N)Sc1ccccc1N)/C(C#N)=C(\\N)Sc1ccccc1N", "note": "[U0126]", "values": [
      {"measurement": "RCP-induced phosphorylation of ERK", "setting": "[1]; 30 μM of U0126", "value": "reduced to baseline"},
      {"measurement": "ERK phosphorylation status", "setting": "[1]; range of U0126 concentrations", "value": "concentration dependent"},
      {"measurement": "proliferation", "setting": "MCF10A-RCP cells", "value": "reduction of proliferation down to control levels"}
    ]}
  ]
}
